pIC50: −log10 of the molar value. The source made the active and inactive calls. The calls are words filed in the database; no cut-off is given here.
What was measured:
[1] = system: A549; assay: Antiproliferative activity against human A549 cells expressing Hsp90-Cdc37 protein assessed as inhibition of cell growth incubated for 48 hrs by MTT assay; assay type: functional, cell-based; settings: A549, 48 h
[2] = target: Heat shock protein HSP90 (Homo sapiens) (UniProt P07900+P08238); assay: Binding affinity to Hsp90 (unknown origin) at 80 uM by UV-Vis spectrophotometric analysis; assay type: protein assay
[3] = system: A549; assay: […] of Bcl-2 protein expression in human A549 cells at 1.25 to 5 uM incubated for 12 hrs by Western blot analysis; assay type: functional, cell-based; settings: dose 1.25-5 µM
[4] = system: A549; assay: Induction of apoptosis in human A549 cells assessed as downregulation of p-Akt level incubated for 12 hrs by Western blot analysis; assay type: functional, cell-based; settings: dose 1.25-5 µM, DDE = dose-dependent effect
[5] = system: A549; assay: Induction of cell cycle arrest in human A549 cells assessed as accumulation of cells at G0/G1 phase measured after 24 hrs by PI staining based flow cytometry analysis; assay type: functional; settings: dose 0.1-0.4 µM, DDE = dose-dependent effect
[6] = target: T1, Hsp90 co-chaperone Cdc37 (Homo sapiens) (UniProt Q16543); assay: Binding affinity to Cdc37 (unknown origin) at 80 uM by UV-Vis spectrophotometric analysis
T1 sequence (whole entry): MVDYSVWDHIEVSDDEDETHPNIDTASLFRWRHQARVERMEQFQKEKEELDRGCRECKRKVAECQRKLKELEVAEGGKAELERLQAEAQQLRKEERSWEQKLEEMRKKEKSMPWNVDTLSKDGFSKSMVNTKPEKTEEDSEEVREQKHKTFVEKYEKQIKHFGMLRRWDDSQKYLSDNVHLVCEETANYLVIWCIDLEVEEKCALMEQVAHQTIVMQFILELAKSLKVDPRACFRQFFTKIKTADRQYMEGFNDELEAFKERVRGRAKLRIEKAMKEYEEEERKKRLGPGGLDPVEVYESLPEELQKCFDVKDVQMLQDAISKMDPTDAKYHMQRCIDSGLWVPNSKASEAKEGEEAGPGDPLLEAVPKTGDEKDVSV

[7] = system: A549; assay: Antiproliferative activity against human A549 cells expressing Hsp90 protein assessed as inhibition of cell growth incubated for 48 hrs by MTT assay; assay type: functional, cell-based; settings: A549, 48 h
[8] = system: A549; assay: Antiproliferative activity against human A549 cells expressing Cdc37 protein assessed as inhibition of cell growth incubated for 48 hrs by MTT assay; assay type: functional, cell-based; settings: A549, 48 h
[9] = system: U2OS; assay: Antiproliferative activity against human U2OS cells assessed as inhibition of cell growth incubated for 48 hrs by MTT assay; assay type: functional, cell-based
[10] = system: A549; assay: Upregulation of cleaved capase-3 expression in human A549 cells at 1.25 to 5 uM incubated for 12 hrs by Western blot analysis; assay type: functional, cell-based; settings: dose 1.25-5 µM
[11] = Thiol reactivity of the compound with DTT by 1H-NMR analysis; assay type: physicochemical
[12] = system: A549; assay: Induction of apoptosis in human A549 cells assessed as total apoptotic cells at 0.2 uM incubated for 48 hrs Annexin V-FITC/propidium iodide staining based flow cytometry relative to control; assay type: functional
[13] = system: A549; assay: Induction of apoptosis in human A549 cells at 0.1 to 0.4 uM incubated for 48 hrs by Hoechst33342 staining based fluorescence microscopic analysis; assay type: functional, cell-based; settings: dose 0.1-0.4 µM
[14] = system: MDA-MB-231; assay: Antiproliferative activity against human MDA-MB-231 cells assessed as inhibition of cell growth incubated for 48 hrs by MTT assay; assay type: functional, cell-based; settings: MDA-MB-231, 48 h
[15] = system: A549; assay: Upregulation of cleaved PARP expression in human A549 cells at 1.25 to 5 uM incubated for 12 hrs by Western blot analysis; assay type: functional, cell-based; settings: dose 1.25-5 µM
[16] = system: A549; assay: Antitumor activity against human A549 cells xenografted in BALB/c mouse lung tumor model assessed as tumor inhibition rate at 0.5 mg/kg, ip measured every day for 21 days by caliper method relative to control; assay type: functional; settings: A549, 504 h, time 21 day
[17] = system: A549; assay: Induction of apoptosis in human A549 cells assessed as total apoptotic cells at 0.4 uM incubated for 48 hrs Annexin V-FITC/propidium iodide staining based flow cytometry relative to control; assay type: functional
[18] = system: A549; assay: Inhibition of Hsp90-Cdc37 complex in human A549 cells assessed as decrease in Hsp90-Cdc37 protein level at 10 uM incubated for 6 hrs by co-immunoprecipitation assay relative to CEL; assay type: cell-based
[19] = system: A549; assay: Induction of apoptosis in human A549 cells assessed as downregulation of Cdk4 level incubated for 12 hrs by Western blot analysis; assay type: functional, cell-based; settings: dose 1.25-5 µM, DDE = dose-dependent effect
[20] = system: A549; assay: Antitumor activity against human A549 cells xenografted in BALB/c mouse lung tumor model assessed as tumor inhibition rate at 1 mg/kg, ip measured every day for 21 days by caliper method relative to control; assay type: functional; settings: A549, 504 h, time 21 day
[21] = Stability of the compound in PBS/MeOH buffer by HPLC analysis; assay type: physicochemical
[22] = system: HCT-116; assay: Antiproliferative activity against human HCT-116 cells assessed as inhibition of cell growth incubated for 48 hrs by MTT assay; assay type: functional, cell-based; settings: HCT-116, 48 h
[23] = system: A549; assay: Antitumor activity against human A549 cells xenografted in BALB/c mouse lung tumor model assessed as tumor weight at 1 mg/kg, ip measured every day for 21 days by caliper method; assay type: functional; settings: time 21 day
[24] = system: A549; assay: Induction of apoptosis in human A549 cells assessed as total apoptotic cells at 0.8 uM incubated for 48 hrs Annexin V-FITC/propidium iodide staining based flow cytometry relative to control; assay type: functional
[25] = system: A549; assay: Antiproliferative activity against human A549 cells assessed as inhibition of cell growth incubated for 48 hrs by MTT assay; assay type: functional, cell-based; settings: A549, 48 h
[26] = Toxicity in BALB/c mouse xenografted with human A549 cells assessed as reduction in body weight at 0.5 to 1 mg/kg, ip measured for 21 days; assay type: organism-based; settings: in vivo, 504 h, dose 0.5-1 mg/kg, time 21 day
[27] = system: A549; assay: Upregulation of Bax protein expression in human A549 cells at 1.25 to 5 uM incubated for 12 hrs by Western blot analysis; assay type: functional, cell-based; settings: dose 1.25-5 µM

With `CC1=C(O)C(=O)C=C2C1=CC=C1[C@@]2(C)CC[C@@]2(C)[C@@H]3C[C@](C)(C(=O)OCCCn4cc([N+](=O)[O-])nc4Cl)CC[C@]3(C)CC[C@]12C` as the molecule, how does the pIC50 [1] read?
Its pIC50 is under 4.00.

And the Activity [2]?
The Activity was “Active”.

What about the Activity [3] of the same molecule?
The Activity was “Active”.

And the Activity [4]?
The Activity was “Dde”.

And the Activity [5]?
Its Activity is “Dde”.

What about the Activity [6] of the same molecule?
Its Activity is “Active”.

What about the pIC50 [7] of the same molecule?
Its pIC50 is under 4.00.

And the pIC50 [8]?
The pIC50 was under 4.00.

What about the pIC50 [9] of the same molecule?
Its pIC50 is 6.24.

And the Activity [10]?
Its Activity is “Active”.

And the Activity [11]?
Its Activity is “Active”.

What about the Activity [12] of the same molecule?
The Activity was 9%.

And the Activity [13]?
The Activity was “Active”.

And the pIC50 [14]?
The pIC50 was 6.24.

And the Activity [15]?
Its Activity is “Active”.

What about the inhibition in vivo at 0.5 mg/kg [16] of the same molecule?
Its inhibition in vivo at 0.5 mg/kg is 54.1%.

And the Activity [17]?
Its Activity is 11.7%.

And the inhibition [18]?
The inhibition was 33.3%.

And the Activity [19]?
The Activity was “Dde”.

What about the inhibition in vivo at 1 mg/kg [20] of the same molecule?
Its inhibition in vivo at 1 mg/kg is 68.3%.

What about the Stability [21] of the same molecule?
The Stability was “Stable”.

What about the pIC50 [22] of the same molecule?
Its pIC50 is 6.23.

And the Activity [23]?
The Activity was 0.46 g.

And the Activity [24]?
The Activity was 29.9%.

And the pIC50 [25]?
Its pIC50 is 6.27.

What about the Activity [26] of the same molecule?
The Activity was “Non-Toxic”.

And the Activity [27]?
Its Activity is “Active”.

Reference: ChEMBL document CHEMBL5154774, “Discovery of Novel Celastrol-Imidazole Derivatives with Anticancer Activity In Vitro and In Vivo” (J Med Chem, 2022)
